The record followed here is patent US10004222B2, “Small molecule ice recrystallization inhibitors and methods of use thereof” (THE UNIVERSITY OF OTTAWA, priority 2012, dated 2018).

This series concerns HepG2 cells. The series is described as follows: human liver cell viability, MTT assay. As to conditions: at the concentration that yielded the highest functionality; overnight at 37° C. The format is cell-based. Here is the method:
In the assay, HepG2 cells (human hepatocellular carcinoma cells) were harvested and incubated at 37° C. overnight in a 96-well plate to a concentration of 20,000 cells per well using Minimum Essential Medium (MEM) as media. The following day (or once cells were confluent) the media was removed and cells were incubated at 37° C. overnight with MEM supplemented with desired concentration of PMP-Glc and NOGlc (100 μL of solution added). The following day the plates were centrifuged (700 RPM for 3 minutes) and the solutions were removed. 200 μL of MEM was added to each well, followed by 50 μL of 2.5 mg/mL MTT solution in Hank's Balanced Salt Solution (HBSS) to a final concentration of 0.5 mg/mL MTT per well. Then the plates were incubated for 3 hours at 37° C. After incubation, the plates were centrifuged (700 RPM for 3 minutes) and 200 μL of a 10% TritonX/0.1 N HCl in isopropanol solution was added to each well. The plates were incubated in the dark for 1 hour, then shaken and the absorbance at […] of each well was read. % viability at 37° C. of PMP-Glc at a concentration 11 mM, 22 mM, 44 mM, 110 mM and 220 mM PMP-Glc was measured, and the results are shown in FIG. 12. % viability at 37° C. of NOGlc at a concentration of 0.1 mM, 0.2 mM, 0.5 mM, 1 mM, 2 mM and 5 mM was measured. Also, % viability at 37° C. of PMP-Glc, pFPh-Glc and pBrPh-Glc at a concentration of 11 mM, 22 mM, 44 mM, 55 mM, 110 mM and 220 mM was measured under the same conditions for the MTT Assay described above.
Human liver cell viability in compound (3a), (4a), […], and (1b) was assessed using a 3-(4,5-dimethylthiazol-2-yl)-2,5-diphenyltetrazolium bromide (MTT) Assay. In the assay, HepG2 cells (human hepatocellular carcinoma cells) were harvested and incubated overnight at 37° C. in a 96-well plate to a concentration of 20,000 cells per well using Minimum Essential Medium (MEM) as media. The following day, the media was removed and cells were incubated at 37° C. overnight with 100 μL MEM supplemented with different concentrations of (3a), (2a), (4a), and (1b). The following day, the plates were centrifuged at 1000 rpm for 5 minutes and solutions removed by aspiration. 200 μL of MEM was added to each well, followed by 50 μL of 2.5 mg/mL MTT (dissolved in HBSS). The plates were then incubated at 37° C. for 4 hours. After incubation, the plates were centrifuged at 1000 rpm for 5 minutes and solution was aspirated. […] The plates were incubated at ambient temperature for 3 hours before being shaken and the absorbance at 570 nm of each well was read. % viability at 37° C. of (3a) at 11 mM, 22 mM, 44 mM, 55 mM and 110 mM was measured and the results are shown in FIG. 37. […] Nonetheless, the cytotoxicity of DMSO itself was not determined.
(In general: Tetrazolium assays rely on reduction of a dye to a coloured formazan, in cell work by metabolically active cells.)
For `O=C(NCc1c(F)cccc1F)[C@H](O)[C@@H](O)[C@H](O)[C@H](O)CO` [(1b), N-(2,6-difluorobenzyl)-D-gluconamide], the cytotoxicity entry is reported as “minimally cytotoxic relative to DMSO alone”.

For the compound `O=C(Nc1ccccc1F)[C@H](O)[C@@H](O)[C@H](O)[C@H](O)CO` [(2a), N-(2-fluorophenyl)-D-gluconamide], the cytotoxicity result is “minimally cytotoxic relative to DMSO alone”.

As to `COc1ccc(NC(=O)[C@H](O)[C@@H](O)[C@H](O)[C@H](O)CO)cc1` [(3a), N-(4-methoxyphenyl)-D-gluconamide], the cytotoxicity entry is “minimally cytotoxic relative to DMSO alone”.

Regarding `O=C(Nc1ccc(Cl)cc1)[C@H](O)[C@@H](O)[C@H](O)[C@H](O)CO` [(4a), N-(4-chlorophenyl)-D-gluconamide], the cytotoxicity result is on record as “minimally cytotoxic relative to DMSO alone”.
